# From patent US20250195504A1, “NALTREXAMINE DERIVATIVES BEARING 5-MEMBER HETEROCYCLIC RING SYSTEMS AND OPIOID RECEPTOR MODULATORS” (VIRGINIA COMMONWEALTH UNIVERSITY, priority 2022, published 2025)
# Structures can show the parent of a compound that is named as a salt.
# Assays:
# hNOP = hNOP (Homo sapiens, UniProt P41146); test: side effect profiling, hNOP; type: binding; conditions: for hNOP binding: at 10 uM
# MOR-CHO cells = target: T1, MOR-CHO cells (Mus musculus, UniProt P42866); test: Calcium flux on MOR-CHO cells, acting as antagonists against DAMGO; type: cell-based
# T1 construct: expressed in transfected cells; host or cells: CHO
# h5-HT2b = h5-HT2b (Homo sapiens, UniProt P41595); test: side effect profiling, h5-HT2b; type: binding; conditions: at 10 uM
# Na channel = test: side effect profiling, Na channel; type: binding
# hNK3 = hNK3 (Homo sapiens, UniProt P29371); test: side effect profiling, hNK3; type: binding
# DOR = target: T2, DOR (Homo sapiens, UniProt P41143); test: competitive radioligand binding assay, DOR ([3H]diprenorphine, CHO cell membranes); conditions: Tables A, B; read-out: Binding Affinity Ki (nM) ± SEM, DOR
# T2 construct: expressed in transfected cells; host or cells: CHO
# MOR = MOR (Mus musculus, UniProt P42866); conditions: read-out: Binding Affinity Ki (nM) ± SEM, MOR; Tables A, B
# KOR = KOR (Mus musculus, UniProt P33534); test: competitive radioligand binding assay, KOR ([3H]diprenorphine, CHO cell membranes); set-up: expressed in transfected cells; host or cells: CHO; conditions: Tables A, B; read-out: Binding Affinity Ki (nM) ± SEM, KOR
# Caco-2 permeability = conditions: human, Caco-2, pH 7.4
# hα1D = hα1D (Homo sapiens, UniProt P25100); test: side effect profiling, hα1D; type: binding
# hNK1 = hNK1 (Homo sapiens, UniProt P25103); test: side effect profiling, hNK1; type: binding; conditions: at 10 uM
# h5-HT1b = h5-HT1b (Homo sapiens, UniProt P28222); test: side effect profiling, h5-HT1b; type: binding; conditions: for h5-HT1b binding: at 10 uM
compound,measurement,setting,value
"O=C(N[C@H]1CC[C@@]2(O)[C@H]3Cc4ccc(O)c5c4[C@@]2(CCN3CC2CC2)[C@H]1O5)c1cccs1 [Example 1 compound 25, 17-Cyclopropylmethyl-3,14β-dihydroxy-4,5α-epoxy-6α-(2′-thienylcarboxamido)morphinan hydrochloride]",Ki,hNOP,6400 nM
same,hNOP binding,hNOP,60%
same,IC50,MOR-CHO cells,26.7 nM
same,h5-HT2b binding,h5-HT2b,h5-HT2b (78% at 10 uM)
same,Ki,Na channel,9900 nM
same,Na channel binding,Na channel; at 10 uM,55%
same,Ki,hNK3,3900 nM
same,hNK3 binding,hNK3; at 10 uM,56%
"O=C(N[C@H]1CC[C@@]2(O)[C@H]3Cc4ccc(O)c5c4[C@@]2(CCN3CC2CC2)[C@H]1O5)c1nccs1 [NTZ, 17-Cyclopropylmethyl-3,14β-dihydroxy-4,5α-epoxy-6α-(2′-thiazolylcarboxamido)morphinan hydrochloride]",Ki,DOR,41.1 ± 3.58 nM
same,Ki,MOR,0.25 ± 0.03 nM
same,Ki,KOR,1.3 ± 0.12 nM
same,"efflux ratio at 1 h, 10 μM",Caco-2 permeability,2.5
"O=C(N[C@H]1CCC2(O)C3Cc4ccc(O)c5c4[C@@]2(CCN3CC2CC2)[C@H]1O5)c1ccc[nH]1 (stereo partly drawn) [Example 1 compound 1, 17-Cyclopropylmethyl-3,14β-dihydroxy-4,5α-epoxy-6a-[(2′-pyrrolyl)carboxamido]morphinan hydrochloride]",Ki,hNOP,1440 nM
same,hNOP binding,hNOP,59%
same,Ki,hα1D,771 nM
same,hα1D binding,hα1D; at 10 uM,84%
same,hNK1 binding,hNK1,89%
same,Ki,h5-HT1b,482 nM
same,h5-HT1b binding,h5-HT1b,85%
"O=C(N[C@H]1CC[C@@]2(O)[C@H]3Cc4ccc(O)c5c4[C@@]2(CCN3CC2CC2)[C@H]1O5)c1ccsc1 [Example 1 compound 31, 17-Cyclopropylmethyl-3,14β-dihydroxy-4,5α-epoxy-6α-(3′-thienylcarboxamido)morphinan hydrochloride]",IC50,MOR-CHO cells,28.9 nM
same,hNK1 binding,hNK1,hNK1 (80% at 10 uM)
same,h5-HT1b binding,h5-HT1b,h5-HT1b (98% at 10 uM)
